What was measured:
[1] = Clearance in human liver microsomes; assay type: ADME, Microsome; settings: read-out: CLH
[2] = Oral bioavailability in rat at 0.5 mg/kg; assay type: ADME, organism-based; settings: in vivo
[3] = molecular target: Calcium/calmodulin-dependent protein kinase type 1D (Homo sapiens, UniProt Q8IU85); experiment: Inhibition of recombinant full length human His-tagged CAMK1delta expressed in baculovirus expression system using serine/threonine-25 peptide as substrate incubated for 60 mins in presence of ATP by Z'-LYTE assay
Sequence of Calcium/calmodulin-dependent protein kinase type 1D (Q8IU85 whole entry): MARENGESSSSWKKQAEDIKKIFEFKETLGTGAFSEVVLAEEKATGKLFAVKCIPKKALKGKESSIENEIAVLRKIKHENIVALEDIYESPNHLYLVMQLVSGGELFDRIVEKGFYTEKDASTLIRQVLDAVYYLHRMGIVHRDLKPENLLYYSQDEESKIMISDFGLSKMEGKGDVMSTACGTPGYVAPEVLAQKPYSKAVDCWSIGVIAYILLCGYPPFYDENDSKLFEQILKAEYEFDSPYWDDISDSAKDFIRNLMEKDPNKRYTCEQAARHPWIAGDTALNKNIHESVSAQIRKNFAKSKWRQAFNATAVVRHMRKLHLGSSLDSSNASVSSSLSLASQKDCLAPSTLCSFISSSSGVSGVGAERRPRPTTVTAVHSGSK

[4] = molecular target: PI3-kinase p110-delta/p85-alpha (Homo sapiens, UniProt O00329); experiment: Inhibition of His-tagged recombinant human PI3K p110delta/p85alpha expressed in baculovirus expression system using PIP2:PS lipid as substrate in presence of ATP after 1 hr by Adapta assay
[5] = organism: Rattus norvegicus; experiment: Displacement of [3H]GABA from Wistar rat brain GABA at 10 uM after 20 mins by radiometric scintillation analysis relative to control
[6] = organism: Cavia porcellus; experiment: Displacement of [3H]nitrobenzylthioinosine from adenosine transporter in guinea pig cerebral cortical membranes at 10 uM after 30 mins by radiometric scintillation analysis relative to control
[7] = molecular target: Type-1 angiotensin II receptor (Homo sapiens) (UniProt P30556); experiment: Displacement of [125I][Sar1,Ile8]-AT-II from full length human recombinant AT1 receptor expressed in CHOK1 cells at 10 uM measured after 120 mins by radiometric scintillation analysis relative to control; assay type: cell-based; settings: CHO-K1
Sequence of Type-1 angiotensin II receptor (Homo sapiens) (P30556 whole entry): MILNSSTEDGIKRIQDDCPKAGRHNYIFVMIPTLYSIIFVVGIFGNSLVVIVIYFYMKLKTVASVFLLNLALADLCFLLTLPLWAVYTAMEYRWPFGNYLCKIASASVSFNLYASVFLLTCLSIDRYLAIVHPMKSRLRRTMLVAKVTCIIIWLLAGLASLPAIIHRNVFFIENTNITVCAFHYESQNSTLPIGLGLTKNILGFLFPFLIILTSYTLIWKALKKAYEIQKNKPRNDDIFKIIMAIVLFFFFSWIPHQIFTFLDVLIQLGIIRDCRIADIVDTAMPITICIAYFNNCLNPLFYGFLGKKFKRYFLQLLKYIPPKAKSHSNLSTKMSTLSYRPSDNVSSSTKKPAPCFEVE

[8] = molecular target: Mitogen-activated protein kinase 14 (Homo sapiens, UniProt Q16539); experiment: Inhibition of recombinant full length human p38alpha expressed in Escherichia coli at 10 uM using MBP as substrate after 30 mins by radiometric scintillation analysis relative to control
Sequence of Mitogen-activated protein kinase 14 (Q16539 whole entry): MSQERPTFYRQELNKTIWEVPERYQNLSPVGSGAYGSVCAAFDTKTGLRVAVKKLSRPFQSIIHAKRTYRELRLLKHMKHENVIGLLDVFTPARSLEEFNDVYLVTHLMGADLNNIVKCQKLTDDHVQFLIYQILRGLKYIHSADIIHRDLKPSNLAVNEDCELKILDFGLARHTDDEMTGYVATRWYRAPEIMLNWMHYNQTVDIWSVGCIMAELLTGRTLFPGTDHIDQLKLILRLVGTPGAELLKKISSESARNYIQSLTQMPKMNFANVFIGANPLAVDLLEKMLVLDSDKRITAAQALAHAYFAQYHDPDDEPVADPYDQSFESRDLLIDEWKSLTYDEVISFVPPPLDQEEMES

[9] = molecular target: Tyrosine-protein kinase CSK (Homo sapiens, UniProt P41240); experiment: Inhibition of recombinant full length human His-tagged CSK expressed in Escherichia coli expression system using tyrosine-2 peptide as substrate incubated for 60 mins in presence of ATP by Z'-LYTE assay
Sequence of Tyrosine-protein kinase CSK (P41240 whole entry): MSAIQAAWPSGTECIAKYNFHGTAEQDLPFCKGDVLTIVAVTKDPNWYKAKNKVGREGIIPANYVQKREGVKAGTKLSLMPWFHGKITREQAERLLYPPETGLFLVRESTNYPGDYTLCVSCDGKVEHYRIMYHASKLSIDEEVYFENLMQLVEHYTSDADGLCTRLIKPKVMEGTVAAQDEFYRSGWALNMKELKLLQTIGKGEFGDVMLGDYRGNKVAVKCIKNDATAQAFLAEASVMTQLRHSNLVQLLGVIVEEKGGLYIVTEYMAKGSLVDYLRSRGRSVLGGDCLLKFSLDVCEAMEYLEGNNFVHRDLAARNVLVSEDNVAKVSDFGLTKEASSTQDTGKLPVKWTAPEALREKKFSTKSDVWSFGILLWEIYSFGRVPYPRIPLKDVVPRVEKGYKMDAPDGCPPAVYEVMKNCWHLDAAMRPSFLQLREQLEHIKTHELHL

[10] = molecular target: Dual specificity tyrosine-phosphorylation-regulated kinase 1B (Homo sapiens, UniProt Q9Y463); experiment: Inhibition of recombinant full length human GST-tagged DYRK1B expressed in baculovirus expression system using serine/threonine-18 peptide as substrate incubated for 60 mins in presence of ATP by Z'-LYTE assay
[11] = molecular target: Tyrosine-protein kinase Fes/Fps (Homo sapiens, UniProt P07332); experiment: Inhibition of recombinant His-tagged full length human FES expressed in baculovirus expression system using Tyr 01 peptide as substrate after 1 hr by Z'-LYTE assay
Sequence of Tyrosine-protein kinase Fes/Fps (P07332 whole entry): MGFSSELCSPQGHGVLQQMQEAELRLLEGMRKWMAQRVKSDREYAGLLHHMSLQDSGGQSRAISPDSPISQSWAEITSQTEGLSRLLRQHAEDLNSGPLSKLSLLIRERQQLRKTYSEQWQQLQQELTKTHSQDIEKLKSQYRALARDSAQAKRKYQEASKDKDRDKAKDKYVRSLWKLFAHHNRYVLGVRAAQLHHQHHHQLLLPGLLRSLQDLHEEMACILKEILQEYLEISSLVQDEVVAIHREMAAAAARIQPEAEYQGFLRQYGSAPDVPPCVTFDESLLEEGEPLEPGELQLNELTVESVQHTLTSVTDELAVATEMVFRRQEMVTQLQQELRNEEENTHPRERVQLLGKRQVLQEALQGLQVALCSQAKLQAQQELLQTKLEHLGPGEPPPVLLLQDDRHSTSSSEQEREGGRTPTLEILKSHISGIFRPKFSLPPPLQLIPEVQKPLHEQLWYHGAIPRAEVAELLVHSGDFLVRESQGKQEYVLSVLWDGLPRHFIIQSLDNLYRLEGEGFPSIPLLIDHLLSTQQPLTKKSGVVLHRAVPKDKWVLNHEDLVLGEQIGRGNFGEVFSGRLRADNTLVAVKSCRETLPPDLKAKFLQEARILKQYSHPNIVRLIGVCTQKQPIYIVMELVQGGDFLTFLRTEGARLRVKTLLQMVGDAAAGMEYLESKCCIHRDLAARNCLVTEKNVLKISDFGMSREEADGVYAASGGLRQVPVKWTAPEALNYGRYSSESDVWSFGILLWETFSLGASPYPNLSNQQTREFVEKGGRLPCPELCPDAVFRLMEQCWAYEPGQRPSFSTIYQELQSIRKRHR

[12] = molecular target: Tyrosine-protein kinase ITK/TSK (Homo sapiens, UniProt Q08881); experiment: Inhibition of recombinant full length human GST-tagged ITK expressed in baculovirus expression system using tyrosine-1 peptide as substrate incubated for 60 mins in presence of ATP by Z'-LYTE assay
Sequence of Tyrosine-protein kinase ITK/TSK (Q08881 whole entry, the tested form may be a part): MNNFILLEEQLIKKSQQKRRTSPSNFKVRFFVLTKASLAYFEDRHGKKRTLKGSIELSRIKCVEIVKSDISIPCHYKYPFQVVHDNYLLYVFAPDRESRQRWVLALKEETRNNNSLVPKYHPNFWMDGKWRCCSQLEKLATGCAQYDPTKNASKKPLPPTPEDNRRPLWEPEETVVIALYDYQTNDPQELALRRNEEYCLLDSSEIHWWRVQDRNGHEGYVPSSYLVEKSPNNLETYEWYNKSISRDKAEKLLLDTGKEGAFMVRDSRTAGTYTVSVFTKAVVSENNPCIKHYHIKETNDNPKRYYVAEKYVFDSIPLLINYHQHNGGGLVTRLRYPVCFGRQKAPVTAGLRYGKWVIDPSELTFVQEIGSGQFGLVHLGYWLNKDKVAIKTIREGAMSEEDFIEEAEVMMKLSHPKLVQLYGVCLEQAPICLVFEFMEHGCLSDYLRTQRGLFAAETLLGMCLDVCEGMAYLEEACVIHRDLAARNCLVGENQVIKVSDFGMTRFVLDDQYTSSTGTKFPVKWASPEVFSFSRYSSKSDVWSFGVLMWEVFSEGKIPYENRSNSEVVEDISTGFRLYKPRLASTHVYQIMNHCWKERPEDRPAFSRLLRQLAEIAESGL

[13] = molecular target: Tyrosine-protein kinase JAK2 (Homo sapiens, UniProt O60674); experiment: Inhibition of human recombinant N-terminal GST tagged JAK2 JH1 catalytic domain (532 to 1132 residues) expressed in baculovirus expression system using Tyr6 peptide as measured after 1 hr in presence of ATP by Z'-LYTE assay
[14] = molecular target: Mast/stem cell growth factor receptor Kit (Homo sapiens, UniProt P10721); experiment: Inhibition of human recombinant His-tagged KIT cytoplasmic domain expressed in baculovirus expression system using Tyr6 peptide as measured after 1 hr in presence of ATP by Z'-LYTE assay
[15] = molecular target: Leucine-rich repeat serine/threonine-protein kinase 2 (Homo sapiens, UniProt Q5S007); experiment: Inhibition of recombinant human GST-tagged LRRK2 catalytic domain (970 to 2527 amino acids) expressed in baculovirus expression system using ERM (LRRKtide) peptide as substrate incubated for 60 mins in presence of ATP by Adapta assay
[16] = molecular target: Dual specificity mitogen-activated protein kinase kinase 6 (Homo sapiens, UniProt P52564); experiment: Inhibition of recombinant full length human His-tagged MAP2K6 expressed in baculovirus expression system using serine/threonine-3 peptide as substrate incubated for 60 mins in presence of ATP by Z'-LYTE assay
Sequence of Dual specificity mitogen-activated protein kinase kinase 6 (P52564 whole entry): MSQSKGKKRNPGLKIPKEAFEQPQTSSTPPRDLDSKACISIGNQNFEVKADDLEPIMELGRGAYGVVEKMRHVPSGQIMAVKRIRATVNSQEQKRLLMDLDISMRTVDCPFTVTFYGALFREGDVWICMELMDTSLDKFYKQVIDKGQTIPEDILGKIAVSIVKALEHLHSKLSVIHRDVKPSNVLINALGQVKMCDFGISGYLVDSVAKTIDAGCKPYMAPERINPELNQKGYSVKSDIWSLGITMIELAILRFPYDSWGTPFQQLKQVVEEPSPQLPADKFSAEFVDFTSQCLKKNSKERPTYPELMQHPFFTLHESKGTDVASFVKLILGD

[17] = molecular target: Mitogen-activated protein kinase 9 (Homo sapiens, UniProt P45984); experiment: Inhibition of recombinant full length human His-tagged JNK2 expressed in baculovirus expression system using serine/threonine-4 peptide as substrate incubated for 60 mins in presence of ATP by Z'-LYTE assay
Sequence of Mitogen-activated protein kinase 9 (P45984 whole entry): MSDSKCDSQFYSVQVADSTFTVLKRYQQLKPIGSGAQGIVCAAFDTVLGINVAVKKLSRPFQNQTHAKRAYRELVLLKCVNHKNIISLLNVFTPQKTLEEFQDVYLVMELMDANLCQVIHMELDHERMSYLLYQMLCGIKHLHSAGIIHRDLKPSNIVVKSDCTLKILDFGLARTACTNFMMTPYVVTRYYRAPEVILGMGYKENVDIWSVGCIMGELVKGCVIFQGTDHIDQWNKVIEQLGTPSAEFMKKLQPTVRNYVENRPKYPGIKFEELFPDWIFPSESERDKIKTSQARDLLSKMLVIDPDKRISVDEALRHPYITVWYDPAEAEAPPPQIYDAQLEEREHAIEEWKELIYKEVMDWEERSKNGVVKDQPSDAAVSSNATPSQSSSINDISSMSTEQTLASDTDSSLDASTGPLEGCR

[18] = molecular target: Protein-tyrosine kinase 6 (Homo sapiens, UniProt Q13882); experiment: Inhibition of recombinant full length human His-tagged BRK expressed in baculovirus expression system using tyr01 peptide as substrate incubated for 60 mins in presence of ATP by Z'-LYTE assay
[19] = molecular target: Serine/threonine-protein kinase TAO2 (Homo sapiens, UniProt Q9UL54); experiment: Inhibition of recombinant human GST-tagged TAO2 catalytic domain (1 to 314 residues) expressed in baculovirus expression system using serine/threonine-7 peptide as substrate incubated for 60 mins in presence of ATP by Z'-LYTE assay
Sequence of Serine/threonine-protein kinase TAO2 (Q9UL54 whole entry, the tested form may be a part): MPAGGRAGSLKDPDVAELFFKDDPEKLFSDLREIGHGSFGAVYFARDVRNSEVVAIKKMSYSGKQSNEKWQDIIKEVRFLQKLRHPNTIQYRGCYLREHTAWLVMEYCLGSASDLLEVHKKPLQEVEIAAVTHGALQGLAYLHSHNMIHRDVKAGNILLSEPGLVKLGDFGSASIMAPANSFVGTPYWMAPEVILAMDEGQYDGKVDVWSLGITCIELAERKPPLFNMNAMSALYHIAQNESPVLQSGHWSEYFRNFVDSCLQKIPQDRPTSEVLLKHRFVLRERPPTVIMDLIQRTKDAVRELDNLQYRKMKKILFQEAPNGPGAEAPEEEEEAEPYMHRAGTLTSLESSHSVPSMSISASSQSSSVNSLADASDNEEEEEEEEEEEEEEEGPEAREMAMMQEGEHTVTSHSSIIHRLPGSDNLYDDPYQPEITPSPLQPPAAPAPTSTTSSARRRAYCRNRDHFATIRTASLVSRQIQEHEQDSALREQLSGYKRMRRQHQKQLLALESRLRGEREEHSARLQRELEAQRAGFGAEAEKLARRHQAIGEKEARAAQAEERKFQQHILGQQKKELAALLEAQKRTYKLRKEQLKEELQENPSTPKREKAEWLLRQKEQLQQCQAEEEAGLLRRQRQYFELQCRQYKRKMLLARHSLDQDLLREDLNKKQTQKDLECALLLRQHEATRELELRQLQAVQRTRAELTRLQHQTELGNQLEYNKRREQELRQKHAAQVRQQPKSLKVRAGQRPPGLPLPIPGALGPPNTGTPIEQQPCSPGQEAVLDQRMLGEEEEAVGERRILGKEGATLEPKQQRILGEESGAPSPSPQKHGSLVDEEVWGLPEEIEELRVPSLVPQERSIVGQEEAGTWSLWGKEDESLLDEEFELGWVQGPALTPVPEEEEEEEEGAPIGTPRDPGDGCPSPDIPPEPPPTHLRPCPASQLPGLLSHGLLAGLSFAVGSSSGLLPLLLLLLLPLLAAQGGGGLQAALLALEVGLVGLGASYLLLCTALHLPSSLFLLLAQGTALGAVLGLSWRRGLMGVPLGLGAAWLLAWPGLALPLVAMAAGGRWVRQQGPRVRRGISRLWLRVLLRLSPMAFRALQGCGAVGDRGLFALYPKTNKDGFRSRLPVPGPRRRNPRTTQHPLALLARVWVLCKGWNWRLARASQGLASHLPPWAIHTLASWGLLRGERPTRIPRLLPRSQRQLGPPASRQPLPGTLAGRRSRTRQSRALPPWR

In the case of `C[C@@H]1C[C@H]1C(=O)N1CCN(c2cnc(C#N)c(-c3cnn(C)c3)n2)C[C@H]1C`, the CLint scaled [1] is reported as less than 16 mL/min/kg, the bioavailability [2] is reported as 79% and the IC50 [3] is reported as greater than 100 µM. It also gave an IC50 [4] of 0.884 µM, an inhibition [5] of 18% and an inhibition [6] of 41%. It also gave an inhibition [7] of -4%, an inhibition [8] of 19% and an IC50 [9] greater than 100 µM. The IC50 [10] was greater than 100 µM, the IC50 [11] was greater than 100 µM and the IC50 [12] was greater than 100 µM. It also gave an IC50 [13] greater than 100 µM, an IC50 [14] greater than 100 µM and an IC50 [15] greater than 100 µM. For the same compound, the IC50 [16] was greater than 100 µM, the IC50 [17] was greater than 100 µM and the IC50 [18] was greater than 100 µM. It also gave an IC50 [19] greater than 100 µM.
